Experimental data published in patent US4241083A, “Germicidal composition for agriculture and horticulture” (priority 1978, dated 1980).

Legend:
apple canker = details: cited from earlier work
Valsa ceratosperma = assay: Length of disease spots on cut apple branches immersed in germicide before inoculation (Ex. 16); type: in vivo; details: 25° C.
Experimental: Branches of Delicious apple (branch diameter: about 1 cm. thick) grown for 1-2 years were cut to 10 cm. length. The cut branches were dried in a low temperature chamber (3° C.) until the water content of the cut branches became 50%. The dried cut branches were immersed in an aqueous solution of ethyl 2-(2-hydroxyethylamino)-3-benzoylpropionate hydrochloride (500 ppm, 1000 ppm and 2500 ppm) for one minute and then dried.
Each cut branch was end bored by a white heated 8 mm diameter cork borer. Valsa ceratosperma, previously cultured for four days on a potato dextrose-agar culture medium, was introduced into the branch by inoculating the branch with the Valsa ceratosperma containing culture by means of the sterilized cork borer. The branches prepared in this way were placed on wet filter paper spread in a polyethylene tray. The tray was inserted into a polyethylene bag which was sealed and then the bag was put into a thermostat (25° C.) for various controlled times.
After removal from the thermostat, the length of disease spots on each branch was measured.
A similar experiment for comparison was carried out using Benomyl, i.e. methyl-1-(buthylcarbamoyl)-2-benzimidazole carbamate as the germicide. The results of the comparative experiment and also a control experiment, in which the dried cut branches were not immersed in germicide (blank), are also shown in Table 2.

Sphaerotheca humuli = assay: Prevention effect for powdery mildew on strawberries (Ex. 22); type: in vivo; details: for Germicidal damage to seedlings: strawberry seedlings; for Percentage of leaf area with disease spots / Percentage of leaves attacked with the disease / Prevention value per leaf (Perfect prevention = 100): third and ninth days, read fifteenth day after inoculation
Excerpt: The prevention effect for powdery mildew on strawberries caused by Sphaerotheca humuli was examined in the following manner.
Strawberry seedlings (3-4 leaves) of Danar variety dug up and planted in a pot in two row of three without drying the roots was inoculated with the above germ by brushing on the spores from a strawberry leaves attacked with powdery mildew.
An aqueous solution of sec-butyl 2-(2-hydroxyethylamino)-3-benzoylpropionate hydrochloride was sprayed on the test plant on the third and ninth days after the seedlings were inoculated with the germ.
(§1) The leaf area on which powdery mildew spots appeared was measured on the fifteenth day after the seedlings were inoculated with the germ. The spotted area is expressed as a prevention value.

Toxicity, LD50 for a rat = details: in vivo
Erysiphe cichoracearum = assay: Prevention effect for powdery mildew on eggplants (Ex. 23); type: in vivo; details: emulsion; for Germicidal damage to seedlings: eggplant seedlings; for Percentage of leaf area with disease spots / Percentage of leaves attacked with the disease / Prevention value per leaf (Perfect prevention = 100): third or ninth days, read fifteenth day after inoculation
Experimental: The emulsion was prepared by blending 25 g of ethyl 2-(2-hydroxyethylamino)-3-benzoylpropionate, 25 ml of isopropanol, 3 g of Demol T (formalin condensed naphthalenesulfonate available from Kao Sekken Inc.), 2 g of Emal 10 (sodium lauryl sulphate available from Kao Sekken Inc.) and 45 g of water.
The prevention effect of the emulsion prepared above for powdery mildew on eggplants caused by Erysiphe cichoracearum was examined in the following manner.
Eggplant seedlings of Shinkitsushin variety planted in sections in two rows of three were inoculated with the above germ by brushing on spores from other eggplant leaf attacked with the powdery mildew.
An aqueous solution of ethyl 2-(2-hydroxyethylamino)-3-benzoylpropionate (2000 ppm and 2500 ppm) was sprayed on the test plant on the third or ninth days after the seedlings were inoculated with the germ by means of glass sprayer.
as §1

[1] = Toxicity, LD50 for a mouse; details: in vivo
Sphaerotheca fuliginea = assay: Prevention effect for powdery mildew on cucumbers (Ex. 20, 21); type: in vivo; details: Table 6; for Germicidal damage to seedlings: cucumber seedlings; for Percentage of leaf area with disease spots / Percentage of leaves attacked with the disease / Prevention value per leaf (Perfect prevention = 100): third and ninth days, read fifteenth day after inoculation
Experimental: The prevention effect for powdery mildew on cucumbers caused by Sphaerotheca fuliginea was examined in the following manner.
Cucumber seedlings (bifoliate age) of Tokiwa Hikari No. 3 (p type) variety planted in sections of two rows of three were inoculated with the above germ by brushing on spores from a cucumber leaf attacked with powdery mildew. […]
The leaf area on which powdery mildew spots appeared was measured on the fifteenth day after the seedlings were inoculated with the germ. The spotted area is expresses as a prevention value.
The same experiment as Example 20 was carried out except that isopropyl 2-(2-hydroxyethylamino)-3-benzoyl-propionate hydrochloride was used instead of ethyl 2-(2-hydroxyethylamino)-3-benzoylpropionate hydrochloride.

CCCCNC(=O)n1c(NC(=O)OC)nc2ccccc21 [methyl-1-(buthylcarbamoyl)-2-benzimidazole carbamate, reference compound]
effect after the canker attacks (apple canker): can only weakly prevent the progress of the disease | Length of disease spot (Valsa ceratosperma; 500 ppm, after 3 days): 1.0 mm | Length of disease spot (Valsa ceratosperma; 500 ppm, after 5 days): 1.0 mm | Length of disease spot (Valsa ceratosperma; 500 ppm, after 7 days): 1.8 mm | Length of disease spot (Valsa ceratosperma; 1000 ppm, after 3 days): 0.5 mm | Length of disease spot (Valsa ceratosperma; 1000 ppm, after 5 days): 0.5 mm | Length of disease spot (Valsa ceratosperma; 1000 ppm, after 7 days): 1.0 mm | Length of disease spot (Valsa ceratosperma; 2500 ppm, after 3 days): 0 mm | Length of disease spot (Valsa ceratosperma; 2500 ppm, after 5 days): 0 mm | Length of disease spot (Valsa ceratosperma; 2500 ppm, after 7 days): 0 mm

CCC(C)OC(=O)C(CC(=O)c1ccccc1)NCCO.Cl (stereo not drawn) [sec-butyl 2-(2-hydroxyethylamino)-3-benzoylpropionate hydrochloride]
Germicidal damage to seedlings (Sphaerotheca humuli; 1000 ppm): none | Percentage of leaf area with disease spots (Sphaerotheca humuli; 1000 ppm): 46.1% | Percentage of leaves attacked with the disease (Sphaerotheca humuli; 1000 ppm): 83.3% | Prevention value per leaf (Perfect prevention = 100) (Sphaerotheca humuli; 1000 ppm): 40.4 | Germicidal damage to seedlings (Sphaerotheca humuli; 2000 ppm): none | Percentage of leaf area with disease spots (Sphaerotheca humuli; 2000 ppm): 0% | Percentage of leaves attacked with the disease (Sphaerotheca humuli; 2000 ppm): 0% | Prevention value per leaf (Perfect prevention = 100) (Sphaerotheca humuli; 2000 ppm): 100 | Germicidal damage to seedlings (Sphaerotheca humuli; 3000 ppm): none | Percentage of leaf area with disease spots (Sphaerotheca humuli; 3000 ppm): 0% | Percentage of leaves attacked with the disease (Sphaerotheca humuli; 3000 ppm): 0% | Prevention value per leaf (Perfect prevention = 100) (Sphaerotheca humuli; 3000 ppm): 100

CCOC(=O)C(CC(=O)c1ccccc1)NCCO (stereo not drawn) [ethyl 2-(2-hydroxyethylamino)-3-benzoylpropionate]
LD50 (Toxicity, LD50 for a rat): 4790 mg/kg | Germicidal damage to seedlings (Erysiphe cichoracearum; 2000 ppm): none | Percentage of leaf area with disease spots (Erysiphe cichoracearum; 2000 ppm): 0% | Percentage of leaves attacked with the disease (Erysiphe cichoracearum; 2000 ppm): 0% | Prevention value per leaf (Perfect prevention = 100) (Erysiphe cichoracearum; 2000 ppm): 100 | Germicidal damage to seedlings (Erysiphe cichoracearum; 2500 ppm): none | Percentage of leaf area with disease spots (Erysiphe cichoracearum; 2500 ppm): 0% | Percentage of leaves attacked with the disease (Erysiphe cichoracearum; 2500 ppm): 0% | Prevention value per leaf (Perfect prevention = 100) (Erysiphe cichoracearum; 2500 ppm): 100 | LD50 [1]: 7600 mg/kg

CC(C)OC(=O)C(CC(=O)c1ccccc1)NCCO.Cl (stereo not drawn) [isopropyl 2-(2-hydroxyethylamino)-3-benzoyl-propionate hydrochloride]
Germicidal damage to seedlings (Sphaerotheca fuliginea; 1500 ppm): none | Percentage of leaf area with disease spots (Sphaerotheca fuliginea; 1500 ppm): 8.9% | Percentage of leaves attacked with the disease (Sphaerotheca fuliginea; 1500 ppm): 55.6% | Prevention value per leaf (Perfect prevention = 100) (Sphaerotheca fuliginea; 1500 ppm): 88.5 | Germicidal damage to seedlings (Sphaerotheca fuliginea; 2000 ppm): none | Percentage of leaf area with disease spots (Sphaerotheca fuliginea; 2000 ppm): 0% | Percentage of leaves attacked with the disease (Sphaerotheca fuliginea; 2000 ppm): 0% | Prevention value per leaf (Perfect prevention = 100) (Sphaerotheca fuliginea; 2000 ppm): 100 | Germicidal damage to seedlings (Sphaerotheca fuliginea; 2500 ppm): none | Percentage of leaf area with disease spots (Sphaerotheca fuliginea; 2500 ppm): 0% | Percentage of leaves attacked with the disease (Sphaerotheca fuliginea; 2500 ppm): 0% | Prevention value per leaf (Perfect prevention = 100) (Sphaerotheca fuliginea; 2500 ppm): 100

COC(=O)NC(=S)Nc1ccccc1NC(=S)NC(=O)OC [thiophanate methyl, 1,2-bis(3-methylcarbonyl-2-thioureido)]
effect after the canker attacks (apple canker): can only weakly prevent the progress of the disease
